Here are results for 4 compounds from PubChem BioAssay AID1259411 (Chemical Carcinogenesis Research Information System (CCRIS), 2018).

This series relates to rodent carcinogenicity bioassays, tumor incidence. The series can be described thus: CCRIS carcinogenicity studies. The source says: The CCRIS database contains chemical records with carcinogenicity, mutagenicity, tumor promotion, and tumor inhibition test results. It was developed by the National Cancer Institute (NCI). Data are derived from studies cited in primary journals, current awareness tools, NCI reports, and other sources. Test results have been reviewed by experts in carcinogenesis and mutagenesis.
CCRIS provides historical information from the years 1985 - 2011. It is no longer updated.
This is an archive assay for CCRIS carcinogenicity studies.

Calls of active or inactive are those of the source. How the calls were made is not given here.

As to `CC(C)NC(=O)N1CC(=O)N(c2cc(Cl)cc(Cl)c2)C1=O`, the carcinogen call was “active; positive” (Species: Mouse, Strain/Sex: CD-1/Female (50/Group), Route: Oral, Dose: 0, 160, 800, 4000 ppm of 95.7% iprodione in diet for 99 wk, study duration 99 wk, Dose: 0, 160, 800, 4000 ppm of 95.7% iprodione in diet for 99 wk, study duration 99 wk, Tumor Site: Type of Lesion: Liver: hepatocellular adenoma and carcinoma in high dose mice); “active; positive” (Species: Mouse, Strain/Sex: CD-1/Male (50/Group), Route: Oral, Dose: 0, 160, 800, 4000 ppm of 95.7% iprodione in diet for 99 wk, study duration 99 wk, Dose: 0, 160, 800, 4000 ppm of 95.7% iprodione in diet for 99 wk, study duration 99 wk, Tumor Site: Type of Lesion: Liver: hepatocellular adenoma and carcinoma in high dose mice); “inactive; negative” (Species: Rat, Strain/Sex: Sprague-Dawley/Female (60/Group), Route: Oral, Dose: 0, 8.4, 16.5, 95 mg/kg/day of 94.5-95.7% iprodione in diet for 104 wk, study duration 104 wk, Dose: 0, 8.4, 16.5, 95 mg/kg/day of 94.5-95.7% iprodione in diet for 104 wk, study duration 104 wk); “active; positive” (Species: Rat, Strain/Sex: Sprague-Dawley/Male (60/Group), Route: Oral, Dose: 0, 6.1, 12.4, 69 mg/kg/day of 94.5-95.7% iprodione in diet for 104 wk, study duration 104 wk, Dose: 0, 6.1, 12.4, 69 mg/kg/day of 94.5-95.7% iprodione in diet for 104 wk, study duration 104 wk, Tumor Site: Type of Lesion: Testes: Interstitial cell adenoma (high dose only)).
Regarding `OCCOCCO`, the carcinogen call runs as follows: (Species: RAT, Strain/Sex: F344/FEMALE, Route: ORAL, Dose: 0, 1.25, 2.5% IN DRINKING WATER FOR 108 WK (STUDY DURATION: 108 WK), Dose: 0, 1.25, 2.5% IN DRINKING WATER FOR 108 WK (STUDY DURATION: 108 WK)) “inactive; negative”; (Species: RAT, Strain/Sex: F344/MALE, Route: ORAL, Dose: 0, 1.25, 2.5% IN DRINKING WATER FOR 108 WK (STUDY DURATION: 108 WK), Dose: 0, 1.25, 2.5% IN DRINKING WATER FOR 108 WK (STUDY DURATION: 108 WK)) “inactive; negative”.
For `CCCO`, the carcinogen call was “inactive; negative” (Species: DOG, Strain/Sex: BEAGLE/FEMALE, Route: GAVAGE, Dose: 0, 30, 180 MG/KG/D 7 D/WK FOR 52 WK (STUDY DURATION: 52 WK), Dose: 0, 30, 180 MG/KG/D 7 D/WK FOR 52 WK (STUDY DURATION: 52 WK)); “inactive; negative” (Species: DOG, Strain/Sex: BEAGLE/MALE, Route: GAVAGE, Dose: 0, 30, 180 MG/KG/D 7 D/WK FOR 52 WK (STUDY DURATION: 52 WK), Dose: 0, 30, 180 MG/KG/D 7 D/WK FOR 52 WK (STUDY DURATION: 52 WK)); “inactive; negative” (Species: MONKEY, Strain/Sex: MACACA ARCTODIES/MALE, Route: ORAL, Dose: 0, 0.25, 2.5, 25 MG/KG 1/D FOR 54 WK (STUDY DURATION: 54 WK), Dose: 0, 0.25, 2.5, 25 MG/KG 1/D FOR 54 WK (STUDY DURATION: 54 WK)); “inactive; negative” (Species: MOUSE, Strain/Sex: SWISS/FEMALE, Route: GAVAGE, Dose: 0, 50, 500 MG/KG/D FOR 18 MO (STUDY DURATION: 18 MO), Dose: 0, 50, 500 MG/KG/D FOR 18 MO (STUDY DURATION: 18 MO)); “inactive; negative” (Species: MOUSE, Strain/Sex: SWISS/MALE, Route: GAVAGE, Dose: 0, 50, 500 MG/KG/D FOR 18 MO (STUDY DURATION: 18 MO), Dose: 0, 50, 500 MG/KG/D FOR 18 MO (STUDY DURATION: 18 MO)); “inactive; negative” (Species: RAT, Strain/Sex: SPRAGUE-DAWLEY/FEMALE, Route: GAVAGE, Dose: 0, 50, 500 MG/KG 1/D FOR 24 MO (STUDY DURATION: 24 MO), Dose: 0, 50, 500 MG/KG 1/D FOR 24 MO (STUDY DURATION: 24 MO)). For the setting “Species: RAT, Strain/Sex: SPRAGUE-DAWLEY/MALE, Route: GAVAGE, Dose: 0, 50, 500 MG/KG 1/D FOR 24 MO (STUDY DURATION: 24 MO), Dose: 0, 50, 500 MG/KG 1/D FOR 24 MO (STUDY DURATION: 24 MO)”, the carcinogen call was “inactive; negative”.
On to `COc1cc(-c2ccc(N)c(OC)c2)ccc1N`, for which the carcinogen call reads like this: (Species: HAMSTER, Route: ORAL, Tumor Site: Type of Lesion: FORESTOMACH) “active; positive”; (Species: MOUSE, Strain/Sex: BALB/FEMALE, Route: ORAL, Dose: 0, 20, 40, 80, 160, 315, 630 PPM IN DRINKING WATER (STUDY DURATION: 112 WK), Dose: 0, 20, 40, 80, 160, 315, 630 PPM IN DRINKING WATER (STUDY DURATION: 112 WK)) “inactive; negative”; (Species: MOUSE, Strain/Sex: BALB/MALE, Route: ORAL, Dose: 0, 20, 40, 80, 160, 315, 630 PPM IN DRINKING WATER (STUDY DURATION: 112 WK), Dose: 0, 20, 40, 80, 160, 315, 630 PPM IN DRINKING WATER (STUDY DURATION: 112 WK)) “inactive; negative”; (Species: RAT, Route: ORAL, Tumor Site: Type of Lesion: EAR (ZYMBAL GLAND), URINARY BLADDER, INTESTINES, INTEGUMENTARY SYSTEM (SKIN), Tumor Site: Type of Lesion: EAR (ZYMBAL GLAND), URINARY BLADDER, INTESTINES, INTEGUMENTARY SYSTEM (SKIN)) “active; positive”; (Species: RAT, Strain/Sex: F344/FEMALE, Route: ORAL, Dose: 0, 80, 170, 330 PPM IN DRINKING WATER FOR 21 MO ( STUDY DURATION: 93 WK), Dose: 0, 80, 170, 330 PPM IN DRINKING WATER FOR 21 MO ( STUDY DURATION: 93 WK), Tumor Site: Type of Lesion: CLITORAL GLAND: ADENOMA OR CARCINOMA, LARGE INTESTINE: ADENOMATOUS POLYP OR ADENOCARCINOMA, LIVER: NEOPLASTIC NODULE OR, Tumor Site: Type of Lesion: CLITORAL GLAND: ADENOMA OR CARCINOMA, LARGE INTESTINE: ADENOMATOUS POLYP OR ADENOCARCINOMA, LIVER: NEOPLASTIC NODULE OR) “active; positive”; (Species: RAT, Strain/Sex: F344/FEMALE, Route: ORAL, Dose: 0, 80, 170, 330 PPM IN DRINKING WATER FOR 21 MO (STUDY DURATION: 21 MO), Dose: 0, 80, 170, 330 PPM IN DRINKING WATER FOR 21 MO (STUDY DURATION: 21 MO), Tumor Site: Type of Lesion: ZYMBAL GLAND: ADENOMA, CARCINOMA, CLITORAL GLAND: ADENOMA, CARCINOMA, LARGE INTESTINE: ADENOMATOUS POLYP OR ADENOCARCINO, Tumor Site: Type of Lesion: ZYMBAL GLAND: ADENOMA, CARCINOMA, CLITORAL GLAND: ADENOMA, CARCINOMA, LARGE INTESTINE: ADENOMATOUS POLYP OR ADENOCARCINO) “active; positive”. Also, the carcinogen call (Species: RAT, Strain/Sex: F344/MALE, Route: ORAL, Dose: 0, 80, 170, 330 PPM IN DRINKING WATER FOR 21 MO (STUDY DURATION: 21 MO), Dose: 0, 80, 170, 330 PPM IN DRINKING WATER FOR 21 MO (STUDY DURATION: 21 MO), Tumor Site: Type of Lesion: ZYMBAL GLAND: ADENOMA, CARCINOMA, PREPUTIAL GLAND: CARCINOMA, SKIN: BASAL CELL ADENOMA, BASAL CELL CARCINOMA, SQUAMOUS C, Tumor Site: Type of Lesion: ZYMBAL GLAND: ADENOMA, CARCINOMA, PREPUTIAL GLAND: CARCINOMA, SKIN: BASAL CELL ADENOMA, BASAL CELL CARCINOMA, SQUAMOUS C) was “active; positive” and the carcinogen call (Species: RAT, Strain/Sex: F344/MALE, Route: ORAL, Dose: 0, 80, 170, 330 PPM IN DRINKING WATER FOR 21 MO (STUDY DURATION: 93 WK), Dose: 0, 80, 170, 330 PPM IN DRINKING WATER FOR 21 MO (STUDY DURATION: 93 WK), Tumor Site: Type of Lesion: BRAIN: MALIGNANT ASTROCYTOMA, PREPUTIAL GLAND: CARCINOMA, ADENOMA OR CARCINOMA, LARGE INTESTINE: ADENOMATOUS POLYP OR AD, Tumor Site: Type of Lesion: BRAIN: MALIGNANT ASTROCYTOMA, PREPUTIAL GLAND: CARCINOMA, ADENOMA OR CARCINOMA, LARGE INTESTINE: ADENOMATOUS POLYP OR AD) is “active; positive”.
